Test results as given in PubChem BioAssay AID1918934 (Molecular Pharmacology Branch, DTP, NCI, 2023).

Test system: 292921-168-R-J2-PDC complex spheroid viability
Experiment: Anticancer human tumor 292921-168-R-J2-PDC patient-derived pancreatic carcinoma cell line growth inhibition
Conditions: for IC50: curve of first compound; for viability, T/C: stronger effect = lower value
Outline: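 Multicellular complex spheroids of tumor cells with human endothelial cells (HUVEC) and mesenchymal stem cells; the LSD1 inhibitor iadademstat was combined with standard-of-care or investigational agents. Top concentration at or near clinical Cmax, half-log dilutions; final DMSO ≤0.25%.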

[1] = second compound 0.1 µM, first compound 0.00316 µM
[2] = second compound 0.1 µM, first compound 0.01 µM
[3] = second compound 0.1 µM, first compound 0.0316 µM
[4] = second compound 0.1 µM, first compound 0.1 µM
[5] = second compound 0.1 µM, first compound 0.316 µM
[6] = second compound 0.1 µM, first compound 1 µM
[7] = second compound 0.316 µM, first compound 0.00316 µM
[8] = second compound 0.316 µM, first compound 0.01 µM
[9] = second compound 0.316 µM, first compound 0.0316 µM
[10] = second compound 0.316 µM, first compound 0.1 µM
[11] = second compound 0.316 µM, first compound 0.316 µM
[12] = second compound 0.316 µM, first compound 1 µM
[13] = second compound 1 µM, first compound 0.00316 µM
[14] = second compound 1 µM, first compound 0.01 µM
[15] = second compound 1 µM, first compound 0.0316 µM
[16] = second compound 1 µM, first compound 0.1 µM
[17] = second compound 1 µM, first compound 0.316 µM
[18] = second compound 1 µM, first compound 1 µM
[19] = second compound 3.16 µM, first compound 0.00316 µM
[20] = second compound 3.16 µM, first compound 0.01 µM
[21] = second compound 3.16 µM, first compound 0.0316 µM
[22] = second compound 3.16 µM, first compound 0.1 µM
[23] = second compound 3.16 µM, first compound 0.316 µM
[24] = second compound 3.16 µM, first compound 1 µM
[25] = second compound 10 µM, first compound 0.00316 µM
[26] = second compound 10 µM, first compound 0.01 µM
[27] = second compound 10 µM, first compound 0.0316 µM
[28] = second compound 10 µM, first compound 0.1 µM
[29] = second compound 10 µM, first compound 0.316 µM
[30] = second compound 10 µM, first compound 1 µM
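Further: seven day compound exposure before luminescent viability read.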
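Wherever viability, T/C is given: 100% = DMSO vehicle control wells.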

Nc1ncn(C2CC(O)C(CO)O2)c(=O)n1 (stereo not given) + NC1CC1c1ccc(-c2cccc(O)c2)cc1
IC50 (second compound 0.1 µM): 0.646 µM
IC50 (second compound 0.316 µM): 0.33 µM
IC50 (second compound 1 µM): 0.104 µM
IC50 (second compound 3.16 µM): 0.171 µM
IC50 (second compound 10 µM): 0.0908 µM
viability, T/C [1]: 79.1%
viability, T/C [2]: 76.2%
viability, T/C [3]: 71.9%
viability, T/C [4]: 66.9%
viability, T/C [5]: 55%
viability, T/C [6]: 46.5%
viability, T/C [7]: 74.7%
viability, T/C [8]: 75%
viability, T/C [9]: 65.2%
viability, T/C [10]: 60.4%
viability, T/C [11]: 49.6%
viability, T/C [12]: 44.4%
viability, T/C [13]: 64.8%
viability, T/C [14]: 52.3%
viability, T/C [15]: 53.4%
viability, T/C [16]: 53.2%
viability, T/C [17]: 48%
viability, T/C [18]: 39.1%
viability, T/C [19]: 65.2%
viability, T/C [20]: 63.5%
viability, T/C [21]: 61.4%
viability, T/C [22]: 54%
viability, T/C [23]: 45.2%
viability, T/C [24]: 38.4%
viability, T/C [25]: 55%
viability, T/C [26]: 56.3%
viability, T/C [27]: 55.3%
viability, T/C [28]: 47.2%
viability, T/C [29]: 45.4%
viability, T/C [30]: 39.8%

Nc1ncn(C2CC(O)C(CO)S2)c(=O)n1 (stereo not given) + NC1CCC(NC2CC2c2ccccc2)CC1
IC50 (second compound 0.1 µM): 0.0438 µM
IC50 (second compound 0.316 µM): 0.04 µM
IC50 (second compound 1 µM): 0.0372 µM
IC50 (second compound 3.16 µM): 0.0346 µM
IC50 (second compound 10 µM): 0.0307 µM
viability, T/C (second compound 0.1 µM, first compound 0.000949 µM): 68.9%
viability, T/C (second compound 0.1 µM, first compound 0.003 µM): 62%
viability, T/C (second compound 0.1 µM, first compound 0.00949 µM): 63.2%
viability, T/C (second compound 0.1 µM, first compound 0.03 µM): 57.1%
viability, T/C (second compound 0.1 µM, first compound 0.0949 µM): 36.8%
viability, T/C (second compound 0.1 µM, first compound 0.3 µM): 10.9%
viability, T/C (second compound 0.316 µM, first compound 0.000949 µM): 66.8%
viability, T/C (second compound 0.316 µM, first compound 0.003 µM): 64.3%
viability, T/C (second compound 0.316 µM, first compound 0.00949 µM): 59.1%
viability, T/C (second compound 0.316 µM, first compound 0.03 µM): 57.2%
viability, T/C (second compound 0.316 µM, first compound 0.0949 µM): 33.2%
viability, T/C (second compound 0.316 µM, first compound 0.3 µM): 11.2%
viability, T/C (second compound 1 µM, first compound 0.000949 µM): 52.2%
viability, T/C (second compound 1 µM, first compound 0.003 µM): 62.7%
viability, T/C (second compound 1 µM, first compound 0.00949 µM): 55.2%
viability, T/C (second compound 1 µM, first compound 0.03 µM): 53.9%
viability, T/C (second compound 1 µM, first compound 0.0949 µM): 33.6%
viability, T/C (second compound 1 µM, first compound 0.3 µM): 10.3%
viability, T/C (second compound 3.16 µM, first compound 0.000949 µM): 55.1%
viability, T/C (second compound 3.16 µM, first compound 0.003 µM): 61.9%
viability, T/C (second compound 3.16 µM, first compound 0.00949 µM): 58.6%
viability, T/C (second compound 3.16 µM, first compound 0.03 µM): 52.9%
viability, T/C (second compound 3.16 µM, first compound 0.0949 µM): 28%
viability, T/C (second compound 3.16 µM, first compound 0.3 µM): 11%
viability, T/C (second compound 10 µM, first compound 0.000949 µM): 56.3%
viability, T/C (second compound 10 µM, first compound 0.003 µM): 61.2%
viability, T/C (second compound 10 µM, first compound 0.00949 µM): 59.6%
viability, T/C (second compound 10 µM, first compound 0.03 µM): 49.6%
viability, T/C (second compound 10 µM, first compound 0.0949 µM): 28.2%
viability, T/C (second compound 10 µM, first compound 0.3 µM): 11.5%

CC(C)CC(NC(=O)CNC(=O)c1cc(Cl)ccc1Cl)B1OC(=O)CC(CC(=O)O)(C(=O)O)O1 (stereo not given) + NC1CC1c1ccc(-c2cccc(O)c2)cc1
IC50 (second compound 0.1 µM): 0.00569 µM
IC50 (second compound 0.316 µM): 0.00554 µM
IC50 (second compound 1 µM): 0.00478 µM
IC50 (second compound 3.16 µM): 0.00464 µM
IC50 (second compound 10 µM): 0.00367 µM
viability, T/C (second compound 0.1 µM, first compound 0.000316 µM): 88.2%
viability, T/C (second compound 0.1 µM, first compound 0.001 µM): 93.4%
viability, T/C [1]: 81.5%
viability, T/C [2]: 19.6%
viability, T/C [3]: 3.61%
viability, T/C [4]: 1.34%
viability, T/C (second compound 0.316 µM, first compound 0.000316 µM): 80%
viability, T/C (second compound 0.316 µM, first compound 0.001 µM): 84.3%
viability, T/C [7]: 80.4%
viability, T/C [8]: 17.9%
viability, T/C [9]: 3.08%
viability, T/C [10]: 1.87%
viability, T/C (second compound 1 µM, first compound 0.000316 µM): 66.2%
viability, T/C (second compound 1 µM, first compound 0.001 µM): 74%
viability, T/C [13]: 68.2%
viability, T/C [14]: 17.2%
viability, T/C [15]: 3.17%
viability, T/C [16]: 1.85%
viability, T/C (second compound 3.16 µM, first compound 0.000316 µM): 70.7%
viability, T/C (second compound 3.16 µM, first compound 0.001 µM): 71.2%
viability, T/C [19]: 67.8%
viability, T/C [20]: 14.5%
viability, T/C [21]: 2.89%
viability, T/C [22]: 1.44%
viability, T/C (second compound 10 µM, first compound 0.000316 µM): 61.6%
viability, T/C (second compound 10 µM, first compound 0.001 µM): 67.1%
viability, T/C [25]: 55.4%
viability, T/C [26]: 11.8%
viability, T/C [27]: 2.07%
viability, T/C [28]: 0.75%

COc1ccc([C@@H](O)c2cc(-c3ncnc4cc(N5CCOCC5)ccc34)c(F)cc2Cl)nn1 + NC1CCC(NC2CC2c2ccccc2)CC1
IC50 (second compound 0.1 µM): 0.205 µM
IC50 (second compound 0.316 µM): 0.191 µM
IC50 (second compound 1 µM): 0.102 µM
IC50 (second compound 3.16 µM): 0.101 µM
IC50 (second compound 10 µM): 0.035 µM
viability, T/C [3]: 61.8%
viability, T/C [4]: 61.3%
viability, T/C [5]: 42.7%
viability, T/C [6]: 30.4%
viability, T/C (second compound 0.1 µM, first compound 3.16 µM): 19.9%
viability, T/C (second compound 0.1 µM, first compound 10 µM): 11.7%
viability, T/C [9]: 61.1%
viability, T/C [10]: 57.7%
viability, T/C [11]: 44.4%
viability, T/C [12]: 26.2%
viability, T/C (second compound 0.316 µM, first compound 3.16 µM): 17.1%
viability, T/C (second compound 0.316 µM, first compound 10 µM): 11.8%
viability, T/C [15]: 59.9%
viability, T/C [16]: 50.4%
viability, T/C [17]: 38.1%
viability, T/C [18]: 24.9%
viability, T/C (second compound 1 µM, first compound 3.16 µM): 18.4%
viability, T/C (second compound 1 µM, first compound 10 µM): 11.2%
viability, T/C [21]: 50%
viability, T/C [22]: 53.7%
viability, T/C [23]: 40.4%
viability, T/C [24]: 27.1%
viability, T/C (second compound 3.16 µM, first compound 3.16 µM): 16.4%
viability, T/C (second compound 3.16 µM, first compound 10 µM): 10.7%
viability, T/C [27]: 48.6%
viability, T/C [28]: 50%
viability, T/C [29]: 36.2%
viability, T/C [30]: 28.2%
viability, T/C (second compound 10 µM, first compound 3.16 µM): 18.1%
viability, T/C (second compound 10 µM, first compound 10 µM): 11.6%
